In patent publication US4680382A, “Analogues of actinomycin D” (priority 1986, dated 1987):
*1 amine or outer side, *2 acyl side, *3 side chain or, on linkers, in order; H or OH if unused. Where a SMILES comes first, the peptide text is derived from it. Bridges are numbered along the chain shown (N, C = ends). Roman numbers before positions name the chains, in order. [ ]: non-standard residue; d: D form. Actinocin(9to1) = Cc1c2oc3c(C)ccc(C(=O)[*:1])c3nc-2c(C(=O)[*:2])c(N)c1=O; NMeV = CN[C@H](C(=O)O)C(C)C; Sar = CNCC(=O)O

Key:
[1] = Maximum tolerated dose (LD10) in tumor-free BDF1 male mice; type: in vivo; settings: lethal dose for 10% normal BDF1 male mice, 21 days (LD10); ip days 1, 5 and 9
Description: These analogues were also tested in tumor-free BDF1 male mice for determination of their MTD values (Table VIII). The animals (18-22 g) were given a broad range of doses of drugs in 5% dimethyl sulfoxide-saline on days 1, 5 and 9. Drugs were administered ip and the maximum tolerated doses of agents which caused death in only 10% of the tested animals in 21 days (i.e., LD10) were recorded as MTD. […] However, the MED values of 7-hydroxy-AMD and its precursor AMD-OZL 10a are high and are seven to tenfold of the MED values of 4a and 8a. On the basis of these MED values, the therapeutic indices of 8a and 4a are 70 and 96. The therapeutic index of 2a is 13, of 10a 10, and of AMD only 4.
^c MTD (maximum tolerated dose) is the lethal dose
(milligram/kilogram) for 10% normal BDF1 male mice (18-22 g); animal
calculated from a plot of logdose vs. percent mortality.

DNA = assay: Viscometry of DNA (test for intercalative binding); settings: increasing [ligand]/DNA base pair ratio
Description: The equilibrium binding constants (Kapp and Bapp) of the "reverse" methyl 7a and the "reverse" phenyl 8a were determined from the Scatchard plots of binding isotherms; the Scatchard plots are produced according to the previously described methods using calf-thymus DNA [Sengupta et al, Biochem. Biophys. Acta 521, 89 (1978)]. The Kapp values are 2.5×10^6 and 2.3×10^6 M^-1, respectively; corresponding Bapp values are 0.038 and 0.036. […] But, these "reverse" analogues associate with DNA less strongly; their frequency of binding is also lower compared to that of AMD. However, the "reverse" analogues fail to cause any measurable change in the ratio of the intrinsic viscosity (γ) of DNA with the increasing ratios of [ligand]/DNA base pair (r), even when low molecular weight DNAs (0.5×10^5 to 1.0×10^5) were employed.

Row | Structure (SMILES) | MTD (maximum tolerated dose) [1] [milligram/kilogram] | change in intrinsic viscosity of DNA / intercalative binding by viscometry (DNA)
1 | Cc1c2oc3c(C)ccc(C(=O)N[C@@H]4C(=O)N[C@H](C(C)C)C(=O)N5CCC[C@H]5C(=O)N(C)CC(=O)N(C)[C@@H](C(C)C)C(=O)O[C@@H]4C)c3nc-2c(C(=O)N[C@@H]2C(=O)N[C@H](C(C)C)C(=O)N3CCC[C@H]3C(=O)N(C)CC(=O)N(C)[C@@H](C(C)C)C(=O)O[C@@H]2C)c(N)c1=O [AMD, Actinomycin D] (I: T[dV]P[Sar][NMeV] / II: T[dV]P[Sar][NMeV]; ester I:1-I:C, II:1-II:C; linker I:N-II:N via Actinocin(9to1)) | 0.25 | steady rise in the value of γ
2 | Cc1c2oc3c(C)c(O)c(N)c(C(=O)NC4C(=O)NC(C(C)C)C(=O)N5CCCC5C(=O)N(C)CC(=O)N(C)C(C(C)C)C(=O)OC4C)c3nc-2c(C(=O)NC2C(=O)NC(C(C)C)C(=O)N3CCCC3C(=O)N(C)CC(=O)N(C)C(C(C)C)C(=O)OC2C)c(N)c1=O (stereo not shown) [4a, 7-Hydroxy-8-amino-actinomycin D] | 2.40 | lack of intercalative binding
